Reference: patent publication US20250122190A1, “HALOGEN-SUBSTITUTED PYRIDAZINONE COMPOUND AND APPLICATION THEREOF” (MEDSHINE DISCOVERY INC., priority 2021, published 2025)

What follows are compounds tested against T1, hTRPC5-T478C (Homo sapiens, UniProt Q9UL62) (assay: hTRPC5-T478C patch clamp IC50 assay). Settings: hTRPC5-T478C-HEK cells, whole-cell patch clamp, Englerin A agonist.
T1 sequence (Q9UL62 1-973): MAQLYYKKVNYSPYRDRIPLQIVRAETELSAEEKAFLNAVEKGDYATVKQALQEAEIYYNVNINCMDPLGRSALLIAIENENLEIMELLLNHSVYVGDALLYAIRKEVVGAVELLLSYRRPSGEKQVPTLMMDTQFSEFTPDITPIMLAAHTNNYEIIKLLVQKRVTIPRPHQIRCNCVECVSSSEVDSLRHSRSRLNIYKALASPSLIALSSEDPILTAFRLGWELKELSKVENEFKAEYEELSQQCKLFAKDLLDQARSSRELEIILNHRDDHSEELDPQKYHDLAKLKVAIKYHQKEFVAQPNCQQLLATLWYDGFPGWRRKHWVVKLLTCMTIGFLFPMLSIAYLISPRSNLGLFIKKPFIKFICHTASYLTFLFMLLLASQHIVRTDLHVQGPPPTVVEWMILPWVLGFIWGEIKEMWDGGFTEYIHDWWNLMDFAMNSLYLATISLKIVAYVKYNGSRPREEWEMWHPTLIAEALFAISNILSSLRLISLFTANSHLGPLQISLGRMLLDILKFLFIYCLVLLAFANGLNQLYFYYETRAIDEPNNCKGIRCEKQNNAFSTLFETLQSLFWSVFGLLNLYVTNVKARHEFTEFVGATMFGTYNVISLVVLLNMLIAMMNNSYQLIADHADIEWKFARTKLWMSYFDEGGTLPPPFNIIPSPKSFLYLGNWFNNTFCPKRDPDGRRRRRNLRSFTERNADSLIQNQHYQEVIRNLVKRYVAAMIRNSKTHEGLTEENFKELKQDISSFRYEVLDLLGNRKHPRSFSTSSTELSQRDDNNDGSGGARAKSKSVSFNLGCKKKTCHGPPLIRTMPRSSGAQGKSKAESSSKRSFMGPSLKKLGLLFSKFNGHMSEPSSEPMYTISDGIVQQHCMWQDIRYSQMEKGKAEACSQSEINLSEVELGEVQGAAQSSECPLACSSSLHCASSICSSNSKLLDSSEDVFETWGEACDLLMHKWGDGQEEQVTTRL
Type: cell-based
Description: Cell culture: hTRPC5-T478C-HEK cells were cultured in a humid environment in 5% CO2 at 37° C.
Cell culture medium ingredients: • DMEM, Supplier: Gibco, Catalog No. 11965-092; • FBS, Supplier: Gibco, Catalog No. 10099-141C, Concentration: 10%; • Pen/Strep, Supplier: Invitrogen, Catalog No. 15140-122, Concentration: 1%; • Zeocin, Supplier: Invitrogen, Catalog No. R25005, Concentration: 200 μg/mL; • Blasticidin S, Supplier: Invitrogen, Catalog No. R21001, Concentration: 5 μg/mL.
In general, the TRPC5-T478C cell line was passaged three times weekly. The dilution factor for each passage was 1:3. Once the cells reached about 80% confluence in the T-75 flask, the cell line was digested with trypsin for about 1 minute and the cell suspension was removed from the flask with a pipette. Depending on the dilution ratio, the removed cell suspension would be transferred to another T-75 flask containing cell culture medium. Note that in order to maintain the logarithmic growth of the cells, the confluence of the cells should be maintained at the subconfluent stage and the cells should be passaged once every 2 to 3 days depending on the proliferation rate of the cell line.
(1) Extracellular fluid: sodium chloride (145 mmol/L), potassium chloride (4 mmol/L), magnesium chloride (1.5 mmol/L), glucose (10 mmol/L), hydroxyethyl piperazineethanesulfonic acid (HEPES, 10 mmol/L). The extracellular fluid was adjusted to pH 7.4 with NaOH, and the osmotic pressure was adjusted to about 305 mOsm/L with pure water or sucrose.
(2) Intracellular fluid: cesium chloride (140 mmol/L), ethylene glycol diethyl ether diamine tetraacetic acid (EGTA, 1 mmol/L), magnesium chloride (2 mmol/L), glucose (10 mmol/L), hydroxyethyl piperazineethanesulfonic acid (HEPES, 10 mmol/L). The intracellular fluid was adjusted to pH 7.2 with […], and the osmotic pressure was adjusted to about 295 mOsm/L with pure water or sucrose.
(3) The extracellular fluid was required to be formulated once a week, and the intracellular fluid was required to be subpackaged and stored at −20° C. after formulation.
Positive reference compounds Englerin A and 2-aminoethoxydiphenyl borate (2-APB) were dissolved in 100% DMSO and stored as a 10 mM working solution after formulation. The test compounds were dissolved in 100% DMSO and stored as a 10 mM working solution after formulation. The final concentration of DMSO in the test solution should be less than 0.3%.
Whole-cell patch clamping was performed at room temperature. The electrical signals recorded using an EPC 10 USB amplifier (HEKA Elektronik, Germany) were low-pass filtered at 3 kHz and finally recorded in PatchMaster 2×90.5 software (HEKA Elektronik, Germany). In this step, the quality control standards were that the cell high-resistance seal was formed at a value greater than 500 MOhms and the detection current was greater than 0.3 nA.
The recording electrode was a borosilicate glass capillary (GC150tF-10, Harvard Apparatus Co., UK), which was pulled by a vertical puller (NARISHIGE PC-10, Japan) and polished. In this step, the quality control standard was that the electrode resistance was between 2 to 5 MΩ.
During whole-cell patch clamp recordings, a continuous filling system (BT100-2J, LongerPump, China) was used to continuously perfuse extracellular fluid. The filling system was mounted on the stage of an upright microscope (FN—S2N, Nikon, Japan), and the filling tip was manually positioned under the microscope.
The voltage instructions for hTRPC5-T478C current amplitude detection were as follows: the cells were clamped as follows: the clamping potential changed in a stepped manner from −40 mV to −80 mV (duration: 50 ms); then the clamping voltage ramped up to +80 mV, and the whole process lasted for 200 ms; then clamping was performed at +80 mV for 50 ms, and finally, the voltage returned to the clamping potential of −40 mV. […]

| Compound | IC50 [nM] |
| --- | --- |
| O=c1[nH]ncc(N2CCc3c(ncnc3Sc3ccc(F)cc3C(F)(F)F)C2)c1Cl [Compound WX002] | 115 |
| O=c1[nH]ncc(N2CCc3c(ncnc3Oc3ccc(F)cc3Br)C2)c1Cl [Compound WX004] | 91.4 |
| COCc1nc2c(c(Oc3ccc(F)cc3C(F)(F)F)n1)CCN(c1cn[nH]c(=O)c1Cl)C2 [Compound WX011] | 191 |

Further compounds by falling IC50, results first:

| IC50 [nM] | Compound |
| --- | --- |
| 304 | O=c1[nH]ncc(N2CCc3c(ncnc3Oc3ccc(F)cc3C(F)(F)F)C2)c1Br [Compound WX009] |
| 196 | CC(F)(F)c1cc(F)ccc1Oc1ncnc2c1CCN(c1cn[nH]c(=O)c1Cl)C2 [Compound WX010] |
| 16.6 | O=c1[nH]ncc(N2CCc3c(nc(CO)nc3Sc3ccc(F)cc3C(F)(F)F)C2)c1Cl [Compound WX012] |
| 15.3 | Nc1nc2c(c(Sc3ccc(F)cc3C(F)(F)F)n1)CCN(c1cn[nH]c(=O)c1Cl)C2 [Compound WX013] |
